Source: patent publication EP4424327A1, “METHOD OR AGENT WITH HDAC REGULATOR, FOR TREATMENT OF DIABETES AND COMPLICATIONS” (Biozipcode, Inc., priority 2021, dated 2023)

Key:
STZ-DM mice [1] = assay: Effect of thymectomy on treatment of STZ-DM mice (Example 8); format: in vivo, C57BL/6 J mice
Procedure: Streptozotocin (150 mg/kg) was tail vein-administered to C57BL/6 J mice (wild type, CLEA Japan, Inc., Osaka) to develop diabetes mellitus. After one month of free feeding, an insulin pellet was subcutaneously administered to these STZ-DM mice to normalize their blood glucose levels. The mice were divided into two groups, for one group of mice, the thymus was removed from the suprasternal fossa (thymectomy group), and for the other group of mice, an incision was made in the suprasternal fossa and closed immediately (control group). Givinostat (Cayman chemical, USA) was orally administered at 2.5 mg/kg to both the thymectomy group and the control group. Givinostat was administered once every three days.
Blood glucose levels of mice in both groups were measured weekly (FIG. 24). After the end of 8 weeks of treatment, perfusion fixation was performed on both groups of mice to confirm the presence or absence of thymus (FIG. 25).

db/db mice [2] = assay: Treatment of db/db mice with HDAC regulator and dapagliflozin (Example 6); format: in vivo; settings: givinostat 2.5 mg/kg + dapagliflozin 1.0 mg/kg orally daily for 8 weeks, then 4 weeks off treatment
Procedure: Db/db mice were observed from week 6, and the time point at which the blood glucose level exceeded 300 mg/dl was defined as the onset of diabetes mellitus. In db/db mice with leptin receptor deficiency, 1.0 mg/kg of dapagliflozin, an SGLT inhibitor, and 2.5 mg/kg of givinostat, an HDAC regulator, were orally administered daily for 8 weeks, after which the treatment was discontinued for 4 weeks and terminated.

STZ-DM mice [3] = assay: Drug treatment of STZ-DM mice (Example 3): weekly blood glucose levels; format: in vivo, C57BL/6 J mice
Procedure: An overview of the procedure is illustrated in FIG. 13. Streptozotocin (150 mg/kg) was tail vein-administered to C57BL/6 J mice (wild type, CLEA Japan, Inc., Osaka) (nonDM) to develop diabetes mellitus. For the STZ-DM mouse, the blood glucose level was normalized by insulin pellet administration, and the blank pellet was administered to a control group. In both the treatment group and the control group, 2.5 mg/kg of givinostat (Cayman chemical, USA) was administered to the tail vein or orally. The insulin pellet or the blank pellet was administered up to 3 days before the start of the givinostat treatment, and the administration of givinostat was started on the day on which it was confirmed that the blood glucose level of the treatment group fell within the normal range on day 0. Note that givinostat was administered once every three days until week 8. In addition, a non-diabetic group (nonDM) in which only a buffer was administered without administering STZ simultaneously with the treatment group, and a non-treated diabetic group (STZ-DM) in which neither blood glucose control nor treatment with givinostat was performed were also observed simultaneously.
(§1) Blood glucose levels were measured weekly for 12 weeks. In addition, an intraperitoneal glucose tolerance test (IPGTT) was performed on some mice 12 weeks after the start of treatment. After 16 hours of fasting, blood glucose level measurement and blood collection were performed at 0 minutes, 100 µl of a 1.5 g/kg glucose solution was intraperitoneally administered, and blood glucose level measurement and blood collection were performed at 30 minutes, 60 minutes, and 120 minutes, respectively. Serum was collected from the collected blood, and the serum insulin concentration was measured using an ultra-sensitive mouse insulin measurement kit (Morinaga Institute of Biological Science, Inc., Japan). FIG. 15 illustrates the transition of blood glucose, and FIG. 16 illustrates the transition of insulin concentration.

STZ-DM mice [4] = assay: Intraperitoneal glucose tolerance test (IPGTT) 12 weeks after start of treatment (Example 3); format: in vivo, C57BL/6 J mice; settings: insulin pellet + givinostat compared with blank pellet + givinostat, 1.5 g/kg glucose i.p.
Procedure: as §1

STZ-DM mice [5] = assay: TNF-α immunostaining (DAB staining) of bone marrow, thymus and pancreatic islets (Example 3); format: in vivo, C57BL/6 J mice
Procedure: In addition, mice in each experimental group were subjected to perfusion fixation, and then dissected to collect the femur, thymus, and pancreas. In the femur, bone tissue was demineralized using a neutral demineralizing solution (10% EDTA solution) to prepare a paraffin block. A paraffin section having a thickness of 3 µm was prepared from the paraffin block using a microtome, and was stained with DAB. As pretreatment for DAB staining, the paraffin section was deparaffinized with xylene and hydrophilized with ethanol, and the antigen was activated using HistoVT one (Nacalai Tesque). Thereafter, DAB staining was performed using TNF-α (abcam).

STZ-DM mice [6] = assay: Insulin and glucagon DAB staining of frozen pancreas sections (Example 3); format: in vivo, C57BL/6 J mice; settings: givinostat administered simultaneously with blood glucose control (insulin pellet)
Procedure: 12 weeks after the start of treatment, some mice were subjected to perfusion fixation with a 4% PFA solution in 0.1 M PB and harvested pancreatic tissue was immersed overnight in a 15% sucrose solution in 0.1 M PB, and then, 8 um frozen sections were prepared with a cryostat. The frozen sections were washed 3 times with PBS (-) for 10 minutes, reacted in a 0.3% hydrogen peroxide solution (0.3% H2O2 in PBS (-)) for 30 minutes at room temperature to inactivate endogenous peroxidase in the sections, and then washed 3 times for 5 minutes with PBS (-). Thereafter, in order to prevent non-specific reactions, the sections were reacted with 5% normal goat serum in PBS (-) supplemented with 0.3% Triton X and blocked at room temperature for 1 hour. After blocking, the sections were reacted with a primary antibody (anti-insulin antibody: CST Inc. or anti-glucagon antibody: CST Inc.) at 4°C overnight. Thereafter, the sections was washed 3 times with PBS (-) for 5 minutes, reacted in ImmPRESS reagent (Vector laboratory) at room temperature for 30 minutes, and further washed. […] The prepared sections were observed under a microscope, about 5 to 8 pancreatic islets were randomly selected, and the percentage of insulin or glucagon positive cells relative to the size of the pancreatic islets was calculated using Image J software.

db/db mice [7] = assay: Treatment of db/db mice with HDAC regulator and insulin glargine (Example 5); format: in vivo; settings: givinostat 2.5 mg/kg orally daily + insulin glargine s.c. daily (tapered from 10 IU), 8-12 weeks
Procedure: (§2) Db/db mice were observed from week 6, and the time point at which the blood glucose level exceeded 300 mg/dl was defined as the onset of diabetes mellitus. […] 2 hours after administration of insulin glargine, 2.5 mg/kg of givinostat was orally administered daily to a mouse whose blood glucose level was measured and blood glucose lowering was confirmed. When the blood glucose level before administration of insulin glargine was lower than 200 mg/dl at longer than 8 weeks after the start of treatment, the administration of insulin glargine and givinostat on that day was discontinued. When the blood glucose level on the next day was also below 200 mg/dl, insulin glargine and givinostat were stopped, and then, the blood glucose level was measured weekly until week 4 to determine the diabetic state. […] When hypoglycemia appeared, blood glucose levels were measured 1 hour after intraperitoneal (300 µL) administration of 25% glucose solution, and this operation was repeated when hypoglycemia was still persistent. […] When hypoglycemia was confirmed, the subsequent insulin was adjusted to 1/2 of the previous dose as necessary.

NOD mice = assay: Treatment of diabetes mellitus in NOD mice with HDAC regulator and blood glucose control (Example 4); format: in vivo; settings: givinostat 2.5 mg/kg orally daily + insulin glargine s.c. daily (tapered from 10 IU), 8-12 weeks
Procedure: as §2, with “The treatment was started for NOD” for “Db/db”, “one” for “were observed from”, “after confirmation of” for “6, and the time point at which the blood glucose level exceeded 300 mg/dl was defined as”, “hyperglycemia.” for “diabetes mellitus.”

STZ-DM mice [8] = assay: Weight of the collected thymus (Example 3); format: in vivo, C57BL/6 J mice; settings: givinostat simultaneously with blood glucose control, both oral and intravenous; non-diabetic 37 mg, diabetic 13 mg
[9] = givinostat simultaneously with blood glucose control (insulin pellet)

**Q.** How did the blood glucose levels (STZ-DM mice [1]; control group without thymectomy, insulin pellet + givinostat 2.5 mg/kg orally once every three days, 8 weeks) turn out when `CCN(CC)Cc1ccc2cc(COC(=O)Nc3ccc(C(=O)NO)cc3)ccc2c1` [givinostat] was run?
**A.** no increase in blood glucose levels was observed

**Q.** What about the “thymus atrophied by diabetes mellitus” value (STZ-DM mice [1]; control group without thymectomy, insulin pellet + givinostat, week 8) of the same molecule?
**A.** recovered to a normal level

**Q.** And the “blood glucose level at the end of treatment” value (STZ-DM mice [1]; thymectomy group, insulin pellet + givinostat 2.5 mg/kg orally once every three days, 8 weeks)?
**A.** about 400 mg/dL

**Q.** And the thymus (STZ-DM mice [1]; thymectomy group, insulin pellet + givinostat, week 8)?
**A.** the thymus did not recover even when the treatment was performed

**Q.** And the diabetes mellitus outcome (db/db mice [2])?
**A.** cured

**Q.** What about the blood glucose level (STZ-DM mice [3]; givinostat 2.5 mg/kg for 8 weeks without insulin pellet (blank pellet)) of the same molecule?
**A.** the blood glucose level did not decrease even when givinostat was administered for 8 weeks

**Q.** What about the blood glucose levels (STZ-DM mice [3]; insulin pellet + givinostat 2.5 mg/kg (oral or intravenous, once every three days for 8 weeks), start of treatment) of the same molecule?
**A.** immediately decreased

**Q.** And the blood glucose level (STZ-DM mice [3]; insulin pellet + givinostat (both orally and intravenously), after discontinuing givinostat after week 9, up to week 12)?
**A.** the reduction in blood glucose level continued even after discontinuing givinostat after week 9

**Q.** And the “blood glucose levels after IPGTT” value (STZ-DM mice [4])?
**A.** early normalization of blood glucose levels

**Q.** And the “insulin in blood after IPGTT” value (STZ-DM mice [4])?
**A.** high blood insulin elevation

**Q.** What about the “TNF-α positive cells in pancreatic islets” value (STZ-DM mice [5]; blank pellet + givinostat treatment (oral) and (intravenous)) of the same molecule?
**A.** a large amount of TNF-α positive cells migrated to the center of the pancreatic islets

**Q.** And the “TNF-α positive cells in bone marrow” value (STZ-DM mice [5]; [9])?
**A.** TNF-α positive cells decreased to the same extent as the non-diabetic group

**Q.** And the “TNF-α positive cells in thymus” value (STZ-DM mice [5]; [9])?
**A.** TNF-α positive cells decreased to the same extent as the non-diabetic group

**Q.** What about the “TNF-α positive cells in pancreatic islets” value (STZ-DM mice [5]; insulin pellet + givinostat treatment (oral) and (intravenous)) of the same molecule?
**A.** almost no TNF-α positive cells were observed

**Q.** And the “area of glucagon positive cells, of the entire pancreatic islets” value (STZ-DM mice [6]; nonDM about 10%, STZ-DM 75%)?
**A.** about 40%

**Q.** What about the “area of insulin positive cells, relative to nonDM” value (STZ-DM mice [6]; pancreatic islets, 12 weeks) of the same molecule?
**A.** about 1/2

**Q.** What about the diabetes mellitus outcome (db/db mice [7]) of the same molecule?
**A.** cured

**Q.** And the diabetes mellitus outcome (NOD mice)?
**A.** cured

**Q.** And the “thymus weight, relative to normal” value (STZ-DM mice [8])?
**A.** about 2/3
